Results: US20240327364A1, “THERAPEUTIC TARGETING OF GPR68 TO INDUCE FERROPTOSIS” (University Of Maryland, Baltimore, priority 2023, published 2024)
Where two headings read alike, the source gives them in different places.

Key:
LZK = target: T1, LZK (Homo sapiens, UniProt O43283); test: KinomeScan; assay type: binding; details: read-out: % Control
T1 construct: purchased DiscoveRx

PKN2 = target: T2, PKN2 (Homo sapiens, UniProt Q16513); test: KinomeScan; assay type: binding; details: read-out: % Control
T2 construct: purchased DiscoveRx (Fremont, CA)

GAL1 = target: T3, GAL1 (Homo sapiens, UniProt P47211); test: GPCR Profiler; assay type: cell-based
T3 construct: host or cells: Chem-1 cells expressing Gα15

FLT3(K663Q) = target: T4, FLT3(K663Q) (Homo sapiens, UniProt P36888, K663Q); test: KinomeScan; assay type: binding; details: read-out: % Control
T4 construct: purchased DiscoveRx (Fremont, CA)

CCK2 = target: T5, CCK2 (Homo sapiens, UniProt P32239); test: GPCR Profiler; assay type: cell-based
T5 construct: host or cells: Chem-1 cells with promiscuous Gα15

VPAC1 = target: T6, VPAC1 (Homo sapiens, UniProt P32241); test: GPCR Profiler; assay type: cell-based
T6 construct: host or cells: Chem-1 cells expressing Galpha15

CAMK2G = target: T7, CAMK2G (Homo sapiens, UniProt Q13555); test: KinomeScan; assay type: binding; details: read-out: % Control
T7 construct: purchased DiscoveRx (KinomeScan service)

MEK1 = target: T8, MEK1 (Homo sapiens, UniProt Q02750); test: KinomeScan; assay type: binding; details: read-out: % Control
T8 construct: purchased DiscoveRx (Fremont, CA)

GABAB1b = target: T9, GABAB1b (Homo sapiens, UniProt Q9UBS5); test: GPCR Profiler; assay type: cell-based
T9 construct: host or cells: Chem-1 cells expressing Gα15

sst2 = target: T10, sst2 (Homo sapiens, UniProt P30874); test: GPCR Profiler; assay type: cell-based
T10 construct: host or cells: Chem-1 cells with Gα15

ALK = target: T11, ALK (Homo sapiens, UniProt Q9UM73); test: KinomeScan; assay type: binding; details: read-out: % Control
T11 construct: purchased DiscoveRx (Fremont, CA)

KIT(D816V) = target: T12, KIT(D816V) (Homo sapiens, UniProt P10721, D816V); test: KinomeScan; assay type: binding; details: read-out: % Control
T12 construct: purchased DiscoveRx

HeLa = test: Cell Titer-Glo viability, Cervical cancer; assay type: cell-based
Method: (§1) OGM2 kills wide variety of cancer cell types. Cell sensitivity can be classified in to Very Sensitive (LC50<2 μM), Sensitive (LC50=2 to 10 μM), Mildly Sensitive (LC50>10 μM), and Refractory (no killing at 10 μM). The listed established cell were incubated with OGM2 at 2 μM or 10 μM for 72 hours under standard cell culture conditions, and relative cell number was assessed using Cell Titer-Glo Luminescent Cell Viability Assay (Promega™) following the manufacturer's instructions. Luminescence was determined using a Cytation 5 reader and Gen5 software package (BioTek™).
(§2) Cancer cells, which are very sensitive to killing by OGM2 (LCs <2 μM), with reported mRNA expression of GPR68 and the related proton sensing receptor GPR4. LC50's (concentrations causing 50% lethality) were determined using CellTiter-Glo (Promega™, G7570). Cells were plated in 12-well plates (CELLTREAT Scientific Products, 229112) in 1 ml of DMEM with high glucose, GlutaMAX, HEPES, or RPMI 1640 with Penicillin-Streptomycin (ThermoFisher™, 10564029, 11875119 and 15140122) and 10% FBS. Cells were incubated overnight at 37° C. in 5% CO2. Then 1 mL of fresh media was added with DMSO, OGM, or positive control (Erastin; APExBIO Technology, LLC, B1524) and cells incubated for 3 days. On the third day, all media was removed, cells were rinsed with 1×PBS, PBS was removed, and 200 μL of 1× Passive Lysis Buffer (Promega™, E1941) was added to each well. […]. Subsequently, 20 μL of lysate was added to 100 μL CellTiter-Glo™ reagent on a LUMITRAC 200 plate (Greiner™ bio-one, 82050-726). Plates were briefly spun down and read on a GloMax-Multi Detection System (Promega™).
(§3) The cells listed in the tables above were incubated with OGM2 at 2 μM or 10 μM for 72 hours under standard cell culture conditions, and relative cell number was assessed using Cell Titer-Glo Luminescent Cell Viability Assay (Promega™) following the manufacturer's instructions. Luminescence was determined using a Cytation 5 reader and Gen5 software package (BioTek™). RNA expression of GPR68 and GPR4 in the corresponding cancer cell lines are listed, according to the publicly available The Human Protein Atlas version 22.0 and Ensembl version 103.38 (see proteinatlas.org). The consensus normalized expression value (“nTPM”=normalize transcript per million) was calculated as the maximum nTPM value for each gene in the two data sources.

THP-1 = test: Cell Titer-Glo viability, Acute monocytic leukemia; assay type: cell-based; details: 72 hours
Method: as §1, §2, §3

MOLM-14 = test: Cell Titer-Glo viability, Acute monocytic leukemia; assay type: cell-based
Method: as §1, §2, §3

WM115 = test: Agarose drop assay; assay type: cell-based, human; details: OGM2 5 μM, 5 days
Method: WM115 cells were trypsinized and resuspended at 100,000 cells per mL in low melt agarose. A 10 μl drop of the cell mixture was added to 12-well plate. After solidifying Normal culture media was added with either DMSO 0.5% or OGM2 5 μM. The area around the agarose drop was visualized manually with light microscopy. The cells were incubated for 5 days and visualized. Cells outside of the agarose drop were visualized and quantitated.
FIG. 12A is a schematic of the agarose drop assay. WM115 cells were mixed into a low melt agarose solution and single 10 μL drops were seeded onto cell culture plates. After solidifying, media containing OGM2 (5 μM) or CTL (DMSO […]) was added and wells were observed 5 days later. Immediately after media addition no cells are on the plate outside of the agarose gel in CTL or OGM2. Five days after seeding cells are observed outside of the gel (Black arrows) in CTL but not in OGM2. […] Quantification on the number of cells that escaped from an average of 5 gel drop replicates. FIG. 12B through FIG. 12D show the cells after media addition. No cells are on the plate outside of the agarose gel in CTL or OGM2. Five days after seeding, cells are observed outside of the gel (arrows) in CTL but not in OGM2.

T5 sequence (P32239 whole entry): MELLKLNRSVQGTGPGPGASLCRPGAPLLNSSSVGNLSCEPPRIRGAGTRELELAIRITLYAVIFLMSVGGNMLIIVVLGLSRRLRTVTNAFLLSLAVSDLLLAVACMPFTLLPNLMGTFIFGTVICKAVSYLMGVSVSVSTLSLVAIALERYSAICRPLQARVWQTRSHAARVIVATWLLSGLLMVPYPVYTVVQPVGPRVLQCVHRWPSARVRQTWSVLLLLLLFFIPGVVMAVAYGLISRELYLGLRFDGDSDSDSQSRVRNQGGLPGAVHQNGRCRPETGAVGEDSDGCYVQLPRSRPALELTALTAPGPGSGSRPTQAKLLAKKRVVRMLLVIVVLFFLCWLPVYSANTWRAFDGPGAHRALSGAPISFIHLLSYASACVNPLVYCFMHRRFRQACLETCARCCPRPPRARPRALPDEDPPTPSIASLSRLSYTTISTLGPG
T6 sequence (P32241 31-457): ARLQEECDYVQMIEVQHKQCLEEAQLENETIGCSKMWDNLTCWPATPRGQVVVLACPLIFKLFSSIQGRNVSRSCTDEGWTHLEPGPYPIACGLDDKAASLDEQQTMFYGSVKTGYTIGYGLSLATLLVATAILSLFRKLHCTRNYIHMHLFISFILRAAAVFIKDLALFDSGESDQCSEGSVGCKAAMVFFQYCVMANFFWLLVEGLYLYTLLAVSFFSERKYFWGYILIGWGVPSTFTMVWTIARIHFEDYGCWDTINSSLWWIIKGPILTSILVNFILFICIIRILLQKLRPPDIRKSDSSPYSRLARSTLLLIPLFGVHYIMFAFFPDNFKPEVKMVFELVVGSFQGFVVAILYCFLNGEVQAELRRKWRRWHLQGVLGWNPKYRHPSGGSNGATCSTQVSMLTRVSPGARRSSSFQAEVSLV
T10 sequence (P30874 whole entry, species assumed): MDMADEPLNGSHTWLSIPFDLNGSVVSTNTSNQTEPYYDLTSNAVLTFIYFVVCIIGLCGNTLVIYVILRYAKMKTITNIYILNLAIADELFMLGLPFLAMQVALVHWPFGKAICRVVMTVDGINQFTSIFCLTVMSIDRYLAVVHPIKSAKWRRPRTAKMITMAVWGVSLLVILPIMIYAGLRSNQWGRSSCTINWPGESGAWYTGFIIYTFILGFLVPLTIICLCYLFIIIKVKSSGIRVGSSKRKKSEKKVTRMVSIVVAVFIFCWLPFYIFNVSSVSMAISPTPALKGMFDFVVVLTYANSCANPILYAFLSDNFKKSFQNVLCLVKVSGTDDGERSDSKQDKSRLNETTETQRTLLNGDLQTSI
T3 sequence (P47211 whole entry): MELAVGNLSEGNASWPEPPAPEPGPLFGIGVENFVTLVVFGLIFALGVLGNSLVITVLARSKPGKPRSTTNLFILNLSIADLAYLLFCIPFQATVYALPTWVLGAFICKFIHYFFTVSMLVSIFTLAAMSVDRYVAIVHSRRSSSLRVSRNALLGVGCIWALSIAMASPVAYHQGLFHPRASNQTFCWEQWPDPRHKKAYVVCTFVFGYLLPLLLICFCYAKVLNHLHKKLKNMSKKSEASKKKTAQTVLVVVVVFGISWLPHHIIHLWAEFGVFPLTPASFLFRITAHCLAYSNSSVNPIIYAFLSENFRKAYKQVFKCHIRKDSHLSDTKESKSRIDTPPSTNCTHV
T9 sequence (Q9UBS5 1-844 isoform Q9UBS5-2): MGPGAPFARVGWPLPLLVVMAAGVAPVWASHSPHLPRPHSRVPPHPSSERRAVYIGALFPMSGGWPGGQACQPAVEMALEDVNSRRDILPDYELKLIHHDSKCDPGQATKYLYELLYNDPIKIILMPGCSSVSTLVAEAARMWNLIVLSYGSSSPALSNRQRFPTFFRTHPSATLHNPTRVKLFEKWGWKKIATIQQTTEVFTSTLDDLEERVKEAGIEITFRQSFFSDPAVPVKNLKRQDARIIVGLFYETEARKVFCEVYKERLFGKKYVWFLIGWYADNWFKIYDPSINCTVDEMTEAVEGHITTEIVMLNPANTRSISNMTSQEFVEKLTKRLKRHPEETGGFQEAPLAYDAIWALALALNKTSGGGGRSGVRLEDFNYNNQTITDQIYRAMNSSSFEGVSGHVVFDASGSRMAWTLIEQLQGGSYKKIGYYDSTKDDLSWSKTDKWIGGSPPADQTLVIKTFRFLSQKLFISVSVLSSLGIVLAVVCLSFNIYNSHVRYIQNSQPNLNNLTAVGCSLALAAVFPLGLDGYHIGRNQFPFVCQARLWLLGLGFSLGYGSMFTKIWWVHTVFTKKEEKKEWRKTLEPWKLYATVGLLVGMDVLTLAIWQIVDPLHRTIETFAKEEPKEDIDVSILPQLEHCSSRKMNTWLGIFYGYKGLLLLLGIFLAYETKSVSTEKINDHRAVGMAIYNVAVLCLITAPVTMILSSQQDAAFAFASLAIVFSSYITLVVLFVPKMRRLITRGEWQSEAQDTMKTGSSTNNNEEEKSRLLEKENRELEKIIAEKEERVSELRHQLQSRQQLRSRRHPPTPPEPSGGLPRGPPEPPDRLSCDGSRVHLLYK
T9 sequence (O75899 42-941 partner): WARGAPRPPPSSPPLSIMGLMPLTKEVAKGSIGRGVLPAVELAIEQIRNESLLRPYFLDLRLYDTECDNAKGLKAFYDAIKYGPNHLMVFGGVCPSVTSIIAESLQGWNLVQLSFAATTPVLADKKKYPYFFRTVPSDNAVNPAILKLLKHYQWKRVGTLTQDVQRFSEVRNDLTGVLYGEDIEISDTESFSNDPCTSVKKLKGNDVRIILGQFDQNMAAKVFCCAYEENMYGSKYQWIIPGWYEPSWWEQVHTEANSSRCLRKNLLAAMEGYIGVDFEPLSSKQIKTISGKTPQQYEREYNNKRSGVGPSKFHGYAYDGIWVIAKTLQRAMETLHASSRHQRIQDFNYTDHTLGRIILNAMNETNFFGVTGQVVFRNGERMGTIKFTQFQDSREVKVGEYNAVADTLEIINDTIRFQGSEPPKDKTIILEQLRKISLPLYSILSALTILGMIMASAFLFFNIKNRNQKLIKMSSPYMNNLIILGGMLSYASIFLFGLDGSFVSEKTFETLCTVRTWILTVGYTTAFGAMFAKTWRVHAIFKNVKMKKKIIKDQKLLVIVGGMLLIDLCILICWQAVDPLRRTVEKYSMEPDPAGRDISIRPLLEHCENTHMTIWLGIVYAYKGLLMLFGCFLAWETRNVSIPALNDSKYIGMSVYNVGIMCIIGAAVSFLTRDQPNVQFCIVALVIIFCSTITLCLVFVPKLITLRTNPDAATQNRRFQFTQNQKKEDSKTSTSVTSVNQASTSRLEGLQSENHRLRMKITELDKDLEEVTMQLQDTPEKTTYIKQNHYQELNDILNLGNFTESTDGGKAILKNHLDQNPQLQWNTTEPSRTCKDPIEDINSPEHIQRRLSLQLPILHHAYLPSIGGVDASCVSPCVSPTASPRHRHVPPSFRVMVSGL
T12 sequence (P10721 26-976 D816V): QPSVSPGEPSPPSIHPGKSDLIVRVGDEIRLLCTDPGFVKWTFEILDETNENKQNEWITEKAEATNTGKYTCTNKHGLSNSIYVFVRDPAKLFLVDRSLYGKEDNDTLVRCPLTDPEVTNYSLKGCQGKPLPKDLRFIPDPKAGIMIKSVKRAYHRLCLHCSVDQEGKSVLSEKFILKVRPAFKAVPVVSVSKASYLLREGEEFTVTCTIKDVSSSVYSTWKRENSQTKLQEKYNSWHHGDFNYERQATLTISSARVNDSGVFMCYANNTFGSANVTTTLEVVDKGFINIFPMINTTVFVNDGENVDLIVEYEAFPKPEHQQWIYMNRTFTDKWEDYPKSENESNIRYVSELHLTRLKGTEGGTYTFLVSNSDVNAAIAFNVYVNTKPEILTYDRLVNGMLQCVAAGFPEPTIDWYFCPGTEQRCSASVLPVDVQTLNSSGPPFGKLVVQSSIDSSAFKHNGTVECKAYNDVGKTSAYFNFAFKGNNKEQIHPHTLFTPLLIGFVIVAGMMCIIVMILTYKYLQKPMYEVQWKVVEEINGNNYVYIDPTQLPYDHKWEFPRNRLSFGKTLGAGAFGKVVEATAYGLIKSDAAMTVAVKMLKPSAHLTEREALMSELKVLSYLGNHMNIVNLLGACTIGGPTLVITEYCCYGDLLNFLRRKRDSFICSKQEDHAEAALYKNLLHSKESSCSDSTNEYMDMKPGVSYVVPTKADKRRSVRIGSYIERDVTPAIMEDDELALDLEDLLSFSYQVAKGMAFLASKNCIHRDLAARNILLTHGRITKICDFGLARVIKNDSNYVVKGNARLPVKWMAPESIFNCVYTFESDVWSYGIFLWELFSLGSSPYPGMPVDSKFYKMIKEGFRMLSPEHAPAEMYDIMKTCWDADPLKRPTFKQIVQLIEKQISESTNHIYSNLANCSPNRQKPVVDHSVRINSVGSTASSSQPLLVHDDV
T7 sequence (Q13555 whole entry): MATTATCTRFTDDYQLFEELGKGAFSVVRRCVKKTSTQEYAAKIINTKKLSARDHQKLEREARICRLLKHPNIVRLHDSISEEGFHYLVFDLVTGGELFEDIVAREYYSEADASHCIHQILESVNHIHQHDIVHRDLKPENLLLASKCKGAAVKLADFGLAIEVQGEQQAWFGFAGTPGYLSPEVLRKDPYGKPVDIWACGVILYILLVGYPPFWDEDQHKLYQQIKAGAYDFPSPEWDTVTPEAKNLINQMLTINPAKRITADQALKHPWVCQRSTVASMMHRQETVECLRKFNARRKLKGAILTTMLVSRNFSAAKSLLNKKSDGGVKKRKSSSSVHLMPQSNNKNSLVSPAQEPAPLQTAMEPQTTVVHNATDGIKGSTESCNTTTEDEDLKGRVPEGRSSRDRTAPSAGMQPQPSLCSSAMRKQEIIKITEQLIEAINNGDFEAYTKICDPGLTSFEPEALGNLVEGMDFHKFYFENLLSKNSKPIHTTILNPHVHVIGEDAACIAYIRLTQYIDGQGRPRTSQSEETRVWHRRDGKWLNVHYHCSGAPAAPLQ

SMILES: CCc1ccc2c(c1)C1(NN=C(c3cccc4ccccc34)S1)C(=O)N2 (stereo not drawn) [OGM1, 5-ethyl-5′-naphthalen-1-ylspiro[1H-indole-3,2′-3H-1,3,4-thiadiazole]-2-one]
- remaining binding at 10 µM (LZK): 100%
- remaining binding at 10 µM (PKN2): 100%
- Antagonism (GAL1; 10 uM): −7.3
- Agonism (GAL1; 12.5 uM): 1.6
- remaining binding at 10 µM (FLT3(K663Q)): 100%
- Antagonism (CCK2; 10 uM): 14.9
- Agonism (CCK2; 12.5 uM): −0.4
- Antagonism (VPAC1; 10 uM): 16.6
- Agonism (VPAC1; 12.5 uM): 0
- remaining binding at 10 µM (CAMK2G): 85%
- remaining binding at 10 µM (MEK1): 84%
- Antagonism (GABAB1b; 10 uM): 0.1
- Agonism (GABAB1b; 12.5 uM): 0.6
- Antagonism (sst2; 10 uM): −1
- Agonism (sst2; 12.5 uM): −0.2
- remaining binding at 10 µM (ALK): 100%
- remaining binding at 10 µM (KIT(D816V)): 100%

SMILES: CCc1ccc2c(c1)C1(NN=C(c3ccccc3)S1)C(=O)N2 (stereo not drawn) [OGM2]
- Class (HeLa): Mildly
- % Survival 2 μM OGM (HeLa; 72 hours): 91.5%
- % Survival 10 μM OGM (HeLa; 72 hours): 68.0%
- CC50 (HeLa; Homo sapiens, HeLa, 72 hours, read-out: LC50 (the source's name)): > 10 µM
- Class (HeLa; Table 13): Low
- % Survival 2 μM OGM (THP-1): 33.0%
- % Survival 10 μM OGM (THP-1): 9.4%
- CC50 (THP-1; Homo sapiens, THP-1, read-out: LC50 (the source's name)): < 2 µM
- Class (MOLM-14): Sensitive (Sensitive (LC50=2 to 10 μM))
- % Survival 2 μM OGM (MOLM-14; 72 hours): 65.3%
- % Survival 10 μM OGM (MOLM-14; 72 hours): 15.3%
- CC50 (MOLM-14; Homo sapiens, MOLM-14, 72 hours, read-out: LC50 (the source's name)): 2 to 10 µM
- migration out of agarose drop (WM115): migrated significantly less than the vehicle treated cells
